Data from patent US20140045809A1, “CORROLES FOR NEUROPROTECTION AND NEURORESCUE” (priority 2008, published 2014).
“Also recorded” adds a separate entry of the source.

Key:
[1] = tested on: RIN-m cells; assay: Protection of RIN-m beta cells against H2O2 toxicity (MTT); assay type: cell-based, rat; details: for cytoprotective effect against H2O2-induced toxicity: H2O2 150 μM
[2] = tested on: cleaved caspase-3; assay: Cleaved caspase-3 level in 6-OHDA-treated SH-SY5Y cells, immunofluorescence; assay type: cell-based, human; details: 20 μM, 30 min before 6-OHDA (40 μM), 24 h
Method: SH-SY5Y cells were pretreated with or without corroles 1C-Fe, 2C-Mn and 3C-Mn and porphyrins 1P-Fe and 2P-Mn (20 μM), 30 min before exposure to 6-OHDA (40 μM) for a subsequent 24 h period. Cell viability was evaluated by MTT test and cell death was assessed using the apoptotic cell death detection ELISA kit. For neurorescue, SH-SY5Y cells were first exposed to 40 μM 6-OHDA for 0.5. 1, 1.5 and 3 h, followed by the addition of the compounds 1C-Fe, 2C-Mn and 3C-Mn (20 μM) and incubated for further 24 h. Growth-associated protein (GAP-43) was detected by fluorescence microscopy using a specific primary antibody. Apoptotic nuclei were determined by terminal deoxynucleotidyl transferase-mediated UTP-digoxigenin nick end labeling analysis. 4′,6-Diamidino-2-phenylnidole (DAPI) staining was applied for nuclear labeling. […]
Since 6-OHDA is also known to induce apoptosis in various cell types, including SH-SY5Y (von Coelln et al. 2001; Nie et al. 2002; Shimizu et al. 2002; Jordan et al. 2004), we further tested effect of corroles on the levels of the apoptotic marker, cleaved caspase-3, a major executer of the mitochondrial intrinsic pathway of apoptosis.

[3] = tested on: NSC-34 cells; assay type: cell-based, mouse; details: 20 μM, 24 h; for SIN-1-induced cytotoxicity (MTT and ELISA): 30 min before SIN-1 (700 μM)
Method: The neuroprotective effects of the iron corrole 1C-Fe and analogous porphyrin 1P-Fe against H2O2 insult were further examined in the motor neuron cell line, NSC-34. NSC-34 cell is a hybrid neuroblastoma x spinal cord (NSC) cell line that resembles motor neurons, displaying a multipolar neuron-like phenotype. Mouse motoneuronal NSC-34 cells were pretreated with or without the corroles 1C-Fe or 2C-Mn or the structurally-related porphyrins 1P-Fe, 2P-Mn, respectively, 30 min before exposure to H2O2 (200 μM) or SIN-1 (700 μM) for a subsequent 24 h period. Cell viability (FIGS. 18A, 19A) was evaluated by MTT test and cell death (FIGS. 18B, 19B) was assessed using the apoptotic cell death detection ELISA kit. [The graphs in FIGS. 18A-18B and 19A-19B present results expressed as percentage of untreated control.

[4] = tested on: SH-SY5Y cells; assay: Neuroprotection/neurorescue against SIN-1-induced cell death in SH-SY5Y cells; assay type: cell-based, human; details: for protection against SIN-1 (MTT reduction analysis and ELISA assay): 30 min before SIN-1, 24 h (Example 12)
Method: SH-SY5Y cells were cultured in DMEM-Eagle/F-12(HAM) (1:1) containing 10% FCS. Cells were resuspended in medium containing 2% FCS, seeded in microtiter plates (96 wells) and allowed to attach for 24 h before initiation of treatment. […]

[5] = Catalytic decomposition of peroxynitrite (PN), stopped-flow kinetics (Table 1); assay type: biochemical
Method: (§1) SOD activity (enzyme-like catalytic decomposition of superoxide anion radical) of the corroles 1C-Fe, 6C-Fe, 1C-Mn, 1C-Cu, 2C-Mn and 3C-Mn was examined via the cytochrome C assay. The catalytic rate constants for decomposition of peroxynitrite (PN) by the newly prepared iron corrole 6C-Fe and manganese corrole 3C-Mn were determined via stopped-flow kinetics as previously described for corroles 1C-Fe, 1C-Mn, and 2C-Mn (Mahammed and Gross, 2006; Gershman et al., 2007). These tests are performed in order to estimate how electronic and structural variables affect reactivity, which is a crucial factor for design of new complexes.

[6] = SOD activity (catalytic decomposition of superoxide anion radical), cytochrome C assay; assay type: biochemical
Method: as §1

[7] = Rescuing DMSO from damage attributed to the hydroxyl radical (Fenton reaction); assay type: biochemical; details: for Yield (%) or amount of product (Formaldehyde): substrate DMSO; for preventing oxidative damage / protection against metal-induced oxidation of substrates: summary of Table 3
Source text: Corrole complexes were examined with respect to their efficiency of rescuing DMSO from damage attributed to the hydroxyl radical, formed via the Fenton reaction that also involves superoxide anion radical and hydrogen […]. It also mimics reaction occurring in biological systems that are exposed to metal toxicity, the situation that occurs in diseases caused by brain iron accumulation.

[8] = tested on: nitrotyrosine (Ntyr); assay: SIN-1-induced cellular protein nitration, nitrotyrosine immunofluorescence in SH-SY5Y cells; assay type: cell-based, human; details: 20 μM corrole, SIN-1 700 μM, 24 h
Method: To determine the effect of the corroles on SIN-1-induced cellular protein nitration, SH-SY5Y neuroblastoma cells were treated with SIN-1 (700 μM) in the absence or presence of 20 μM of the corroles 1C-Fe, 2C-Mn, and 3C-Mn. Protein nitration was detected by immunofluorescence analysis using a monoclonal antibody against nitrotyrosine (Ntyr), a biological marker of peroxynitrite.

[9] = CuSO4/ascorbate, no additive 44 μM
[10] = CuSO4/glutathione, no additive 11 μM

| SMILES | protective effect against H2O2 toxicity relative to porphyrin 1P-Fe (MTT) ([1]; 20 μM, 30 min before 35 μM H2O2, 24 h) | protective effect against H2O2 toxicity (MTT) ([1]; 1-50 μM before 35 μM H2O2) | cytoprotective effect against H2O2-induced toxicity [1] | 6-OHDA-induced increase of cleaved caspase-3 [2] | protection against H2O2-mediated cytotoxicity (MTT and ELISA) ([3]; 30 min before H2O2 (200 μM)) | SIN-1-induced cytotoxicity (MTT and ELISA) [3] | neurorescue after SIN-1 insult ([4]; 20 μM added 0.5, 1.5 or 3 h after insult, 24 h (Example 11)) | cytoprotection against different SIN-1 concentrations ([4]; 25 μM corrole, FIG. 12C) | neuroprotective effect against SIN-1 induced toxicity ([4]; 10 and 20 μM, 30 min pretreatment, 24 h (Example 11)) | inhibition of neuronal death by SIN-1 ([4]; 10 and 20 μM, less potent than 2C-Mn and 3C-Mn) | protection against SIN-1 (MTT reduction analysis and ELISA assay) [4] | kcat, catalytic rate constant for decomposition of PN [5] | IC50 [6] | Yield (%) or amount of product (Formaldehyde) [7, 9] | Yield (%) or amount of product (Formaldehyde) [7, 10] | preventing oxidative damage / protection against metal-induced oxidation of substrates [7] | nitrotyrosine (Ntyr) staining, SIN-1-induced [8] |
| --- | --- | --- | --- | --- | --- | --- | --- | --- | --- | --- | --- | --- | --- | --- | --- | --- | --- |
| O=S(=O)(O)c1cc2[n]3c1C(c1c(F)c(F)c(F)c(F)c1F)=C1C=CC4=[N+]1[Fe-]31[n]3c(cc(S(=O)(=O)O)c3-2)C(c2c(F)c(F)c(F)c(F)c2F)=c2ccc([n]21)=C4c1c(F)c(F)c(F)c(F)c1F (stereo not drawn) [1C-Fe, 2,17-bis(sulfonato)-5,10,15-tris(pentafluorophenyl)-corrolato iron(III)] | exhibit a greater protective effect | significant protective effect | showed cytoprotective effects | abolished partially | significant protection | significantly attenuated | instigated neurorescue | protect cells against different SIN-1 concentrations | dose-dependent neuroprotective effect | able to inhibit neuronal death | protect, in a dose-dependent manner | 2e+06 M⁻¹ s⁻¹ | 1640 nM | 0 µM | 0 µM | very potent in preventing the oxidative damage | partial (albeit quite remarkable) reduction in Ntyr staining |
| C[n+]1ccc(C2=C3C=CC4=[N+]3[Mn-]35[n]6c2ccc6-c2ccc([n]23)C(c2cc[n+](C)cc2)=c2ccc([n]25)=C4c2c(F)c(F)c(F)c(F)c2F)cc1.[I-].[I-] (stereo not drawn) [2C-Mn, 5,15-bis(4-N-methyl-pyridilium)-10-pentafluorophenyl-corrolato manganese(III) diiodide salt] |  |  | totally inefficient; also recorded: inefficiency | totally |  | significantly attenuated |  |  |  |  | protect, in a dose-dependent manner | 400000 M⁻¹ s⁻¹ | 1520 nM | 7 µM | 5 µM | protect better than corrole 1C-Mn | totally abolished |
